Laboratory results from US20250388543A1, “HETEROARYL COMPOUNDS FOR THE TREATMENT OF PAIN” (VERTEX PHARMACEUTICALS INCORPORATED, priority 2022, published 2025).

Target: human NaV 1.8 (Homo sapiens, UniProt Q9Y5Y9)
Experiment: E-VIPR Assay Detecting and Measuring NaV Inhibition Properties
Assay type: cell-based
Conditions: HEK cells expressing a truncated form of human NaV 1.8 with full channel activity; electrical stimulation, membrane-potential FRET dyes; 30 minutes compound incubation; read-out: measured IC50 value in the E-VIPR Assay
Excerpt: E-VIPR Assay Detecting and Measuring NaV Inhibition Properties
Sodium ion channels are voltage-dependent proteins that can be activated by inducing membrane voltage changes by applying electric fields. The electrical stimulation instrument and methods of use, referred to as E-VIPR, are described in International Publication No. WO 2002/008748 A3 and C.-J. Huang et al. Characterization of voltage-gated sodium channel blockers by electrical stimulation and fluorescence detection of membrane potential, 24 Nature Biotech. 439-46 (2006), both of which are incorporated by reference in their entirety. The instrument comprises a microtiter plate handler, an optical system for exciting the coumarin dye while simultaneously recording the coumarin and oxonol emissions, a waveform generator, a current- or voltage-controlled amplifier, and parallel electrode pairs that are inserted into assay plate wells. Under integrated computer control, this instrument passes user-programmed electrical stimulus protocols to cells within the wells of the microtiter plate.
16-20 hours prior to running the assay on E-VIPR, HEK cells expressing a truncated form of human NaV 1.8 with full channel activity were seeded into microtiter 384-well plates, pre-coated with matrigel, at a density of 25,000 cells per well. 2.5-5% KIR2.1 BacMam virus was added to the final cell suspension before seeding into cell plates. HEK cells were grown in Dulbecco's Modified Eagle's Medium (DMEM) supplemented with 10% FBS (Fetal Bovine Serum, qualified; Sigma #F4135), 1% NEAA (Non-Essential Amino Acids, Gibco #11140), 1% HEPES (Gibco #15630), 1% Pen-Strep (Penicillin-Streptomycin; Gibco #15140) and 5 μg/ml Blasticidin (Gibco #R210-01). Cells were expanded in 5-layer CellSTACK culture chambers or cell culture flasks with vented caps, with 90-95% humidity and 5% CO2.
Reagents and Stock Solutions:
100 mg/mL Pluronic F-127 (Sigma #P2443), in dry DMSO
Compound Plates: Corning 384-well Polypropylene Round Bottom #3656
Cell Plates: 384-well tissue culture treated plates (Greiner #781091-2B)
2.5-5% KIR 2.1 Bacmam virus (produced in-house), prepared as described in Section 3.3 of J. A. Fornwald et al., Gene Expression in Mammalian Cells Using BacMam, a Modified Baculovirus System, 1350 Methods in Molecular Biology 95-116 (2016), the entire contents of which are incorporated by reference. The concentration used can be dependent on viral titer of each batch.
5 mM DiSBAC6(3), a voltage sensitive oxonol acceptor (CAS number 169211-44-3; 5-[3-(1,3-dihexylhexahydro-4,6-dioxo-2-thioxo-5-pyrimidinyl)-2-propen-1-ylidene]-1,3-dihexyldihydro-2-thioxo-4,6(1H,5H)-pyrimidinedione), in dry DMSO. The preparation of DiSBAC6(3) is analogous to that of DiSBAC4(3) as described in Voltage Sensing by Fluorescence Resonance Energy Transfer in Single Cells, Gonzalez, J. E. and Tsien, R. Y. (1995) Biophys. J. 69, 1272-1280.
5 mM CC2-DMPE, a commercially available membrane-bound coumarin phospholipid FRET donor (ThermoFisher Scientific catalog number K1017, CAS number 393782-57-5; tetradecanoic acid, 1,1′-[(1R)-1-[8-(6-chloro-7-hydroxy-2-oxo-2H-1-benzopyran-3-yl)-3-hydroxy-3-oxido-8-oxo-2,4-dioxa-7-aza-3-phosphaoct-1-yl]-1,2-ethanediyl]ester) was prepared in dry DMSO. See also, Improved indicators of cell membrane potential that use fluorescence resonance energy transfer, Gonzalez, J. E. and Tsien, R. Y. (1997) Chem. Biol. 4, 269-277.
Voltage Assay Background Suppression Compound (VABSC-1) is prepared in H2O (89-363 mM, range used to maintain solubility)
Human Serum (HS, Millipore #S1P1-01KL, or Sigma SLBR5469V and SLBR5470V as a 50%/50% mixture, for 25% assay final concentration)
Sodium Chloride 160 mM (9.35 g/L), Potassium Chloride, 4.5 mM (0.335 g/L), Glucose 10 mM (1.8 g/L), Magnesium Chloride (Anhydrous) 1 mM (0.095 g/L), Calcium Chloride 2 mM (0.222 g/L), HEPES 10 mM (2.38 g/L) in water. […]

Sequence of human NaV 1.8 (Q9Y5Y9 126-1722 limits assumed): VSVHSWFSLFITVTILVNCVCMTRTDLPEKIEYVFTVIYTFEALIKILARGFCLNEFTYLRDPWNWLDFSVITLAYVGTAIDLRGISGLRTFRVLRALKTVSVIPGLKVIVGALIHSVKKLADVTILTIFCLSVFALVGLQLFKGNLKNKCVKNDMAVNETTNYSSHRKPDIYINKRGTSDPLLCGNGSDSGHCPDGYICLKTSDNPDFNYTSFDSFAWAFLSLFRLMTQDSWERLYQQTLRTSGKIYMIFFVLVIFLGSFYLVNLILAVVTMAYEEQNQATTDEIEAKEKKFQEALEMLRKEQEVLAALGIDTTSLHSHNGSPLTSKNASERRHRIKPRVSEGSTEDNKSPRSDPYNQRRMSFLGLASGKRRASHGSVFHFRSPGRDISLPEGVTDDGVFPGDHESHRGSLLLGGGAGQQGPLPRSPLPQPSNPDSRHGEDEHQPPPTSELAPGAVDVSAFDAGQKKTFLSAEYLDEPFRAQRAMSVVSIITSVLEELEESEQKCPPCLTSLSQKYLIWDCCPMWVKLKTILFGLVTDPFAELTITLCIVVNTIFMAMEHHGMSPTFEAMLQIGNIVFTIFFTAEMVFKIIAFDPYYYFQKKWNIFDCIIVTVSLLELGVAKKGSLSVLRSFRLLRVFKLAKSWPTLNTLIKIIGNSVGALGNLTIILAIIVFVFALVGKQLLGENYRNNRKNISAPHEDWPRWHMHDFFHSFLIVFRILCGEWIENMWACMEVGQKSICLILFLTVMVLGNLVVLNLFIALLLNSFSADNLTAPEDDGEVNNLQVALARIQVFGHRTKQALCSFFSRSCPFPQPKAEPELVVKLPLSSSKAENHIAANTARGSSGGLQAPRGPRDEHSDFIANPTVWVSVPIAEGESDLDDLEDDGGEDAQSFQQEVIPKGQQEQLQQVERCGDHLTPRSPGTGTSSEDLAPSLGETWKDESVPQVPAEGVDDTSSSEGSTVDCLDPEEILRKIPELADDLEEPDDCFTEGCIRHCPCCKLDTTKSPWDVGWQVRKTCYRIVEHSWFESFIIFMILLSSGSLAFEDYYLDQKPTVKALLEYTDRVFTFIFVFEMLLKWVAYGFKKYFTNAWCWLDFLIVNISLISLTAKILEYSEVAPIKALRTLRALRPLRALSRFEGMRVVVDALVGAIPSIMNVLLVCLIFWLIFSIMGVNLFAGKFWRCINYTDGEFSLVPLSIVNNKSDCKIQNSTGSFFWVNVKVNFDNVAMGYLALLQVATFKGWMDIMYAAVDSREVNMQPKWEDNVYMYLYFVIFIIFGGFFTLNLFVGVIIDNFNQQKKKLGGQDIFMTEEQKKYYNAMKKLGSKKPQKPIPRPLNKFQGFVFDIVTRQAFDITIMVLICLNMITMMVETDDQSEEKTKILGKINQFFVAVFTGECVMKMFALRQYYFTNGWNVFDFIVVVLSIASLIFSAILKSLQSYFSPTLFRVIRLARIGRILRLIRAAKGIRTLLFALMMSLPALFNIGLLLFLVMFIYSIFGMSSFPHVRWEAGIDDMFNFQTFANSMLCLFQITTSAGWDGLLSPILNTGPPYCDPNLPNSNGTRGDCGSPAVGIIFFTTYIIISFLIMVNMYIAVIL

SMILES | IC50
CCOC(=O)c1c(C)[nH]c(-c2c(Oc3ccc(F)c(F)c3C)ncc(C(F)(F)F)c2C)c(C)c1=O [Compound 43, ethyl 6-[2-(3,4-difluoro-2-methyl-phenoxy)-4-methyl-5-(trifluoromethyl)-3-pyridyl]-2,5-dimethyl-4-oxo-1H-pyridine-3-carboxylate] | 500 to 2000 nM
Cc1[nH]c(-c2c(Oc3ccc(F)c(F)c3C)ncc(C(F)(F)F)c2C)cc(=O)c1-c1cn(C)c(C)n1 [Compound 162, 6-[2-(3,4-difluoro-2-methyl-phenoxy)-4-methyl-5-(trifluoromethyl)-3-pyridyl]-3-(1,2-dimethylimidazol-4-yl)-2-methyl-1H-pyridin-4-one] | 500 to 2000 nM
CCOC(=O)c1c(-c2cc3ccccc3nc2N2CCC[C@@H](OC)C2)[nH]c(C)c(OC)c1=O [Compound 224, ethyl 5-methoxy-2-[2-[(3R)-3-methoxy-1-piperidyl]-3-quinolyl]-6-methyl-4-oxo-1H-pyridine-3-carboxylate] | 2000 to 5000 nM
Cc1[nH]c(-c2cc(C(F)(F)F)ncc2C2CCC(C(F)(F)F)CC2)cc(=O)c1C (stereo not drawn) [Compound 142, 2,3-dimethyl-6-[2-(trifluoromethyl)-5-[4-(trifluoromethyl)cyclohexyl]-4-pyridyl]-1H-pyridin-4-one] | 500 to 2000 nM
Cc1cc(=O)cc(-c2cc(C(F)(F)F)cnc2N2CCC(F)(F)CC2)[nH]1 [Compound 157, 2-[2-(4,4-difluoro-1-piperidyl)-5-(trifluoromethyl)-3-pyridyl]-6-methyl-1H-pyridin-4-one] | ≥ 5000 nM
Cc1cc(=O)cc(-c2cc(C(F)(F)F)cnc2N2CCCC(F)(F)CC2)[nH]1 [Compound 156, 2-[2-(4,4-difluoroazepan-1-yl)-5-(trifluoromethyl)-3-pyridyl]-6-methyl-1H-pyridin-4-one] | 500 to 2000 nM
CCOC(=O)c1c(-c2cc3ccccc3nc2N2CCCC(F)(F)C2)[nH]c(C)c(OC)c1=O [Compound 226, ethyl 2-[2-(3,3-difluoro-1-piperidyl)-3-quinolyl]-5-methoxy-6-methyl-4-oxo-1H-pyridine-3-carboxylate] | 2000 to 5000 nM
Cc1cc(=O)cc(-c2cnc(C(F)(F)F)nc2C2CCC(F)(F)CC2)[nH]1 [Compound 109, 2-[4-(4,4-difluorocyclohexyl)-2-(trifluoromethyl)pyrimidin-5-yl]-6-methyl-1H-pyridin-4-one] | 2000 to 5000 nM
CCOC(=O)c1c(-c2cc(C(F)(F)F)ncc2N2CCCC(F)(F)CC2)[nH]c(C)c(C)c1=O [Compound 34, ethyl 2-[5-(4,4-difluoroazepan-1-yl)-2-(trifluoromethyl)-4-pyridyl]-5,6-dimethyl-4-oxo-1H-pyridine-3-carboxylate] | 2000 to 5000 nM
CCOC(=O)c1c(-c2cc3ccccc3nc2N2CCCOCC2)[nH]c(C)c(OC)c1=O [Compound 227, ethyl 5-methoxy-6-methyl-2-[2-(1,4-oxazepan-4-yl)-3-quinolyl]-4-oxo-1H-pyridine-3-carboxylate] | 2000 to 5000 nM
CCOC(=O)c1c(-c2cc3ccccc3nc2N2C[C@@H]3CCO[C@@H]3C2)[nH]c(C)c(OC)c1=O [Compound 228, ethyl 2-[2-[(3aS,6aS)-2,3,3a,4,6,6a-hexahydrofuro[2,3-c]pyrrol-5-yl]-3-quinolyl]-5-methoxy-6-methyl-4-oxo-1H-pyridine-3-carboxylate] | ≥ 5000 nM
Cc1c(Oc2nc3ccccc3cc2-c2cc(=O)cc[nH]2)ccc(F)c1F [Compound 115, 2-[2-(3,4-difluoro-2-methyl-phenoxy)-3-quinolyl]-1H-pyridin-4-one] | 500 to 2000 nM
Cc1cc(C(C)(C)C)cc(Oc2ccc(F)cc2O)c1-c1cc(=O)cc[nH]1 [Compound 160, 2-[4-tert-butyl-2-(4-fluoro-2-hydroxy-phenoxy)-6-methyl-phenyl]-1H-pyridin-4-one] | ≥ 5000 nM
CCOC(=O)c1c(-c2cc3ccccc3nc2N2CCOCC2)[nH]c(C)c(OC)c1=O [Compound 249, ethyl 5-methoxy-6-methyl-2-(2-morpholino-3-quinolyl)-4-oxo-1H-pyridine-3-carboxylate] | ≥ 5000 nM
Cc1cc(=O)cc(-c2ccccc2OCC2CC2)[nH]1 [Compound 146, 2-[2-(cyclopropylmethoxy)phenyl]-6-methyl-1H-pyridin-4-one] | ≥ 5000 nM
Cc1cc(=O)cc(-c2ccc(C(C)(C)C)cc2OCC2CC2(F)F)[nH]1 (stereo not drawn) [Compound 136] | 2000 to 5000 nM
Cc1cc(=O)cc(-c2ccccc2C2CC2)[nH]1 [Compound 148, 2-(2-cyclopropylphenyl)-6-methyl-1H-pyridin-4-one] | ≥ 5000 nM

The next lines start with the values.

IC50 | SMILES
≥ 5000 nM | Cc1cc(=O)[nH]c(-c2nc(C(F)(F)F)ccc2N2CCCC(F)(F)CC2)n1 [Compound 252, 2-[3-(4,4-difluoroazepan-1-yl)-6-(trifluoromethyl)-2-pyridyl]-4-methyl-1H-pyrimidin-6-one]
500 to 2000 nM | Cc1cc(-c2[nH]c(C)c(C)c(=O)c2C(=O)O)c(N2CCCC(F)(F)CC2)nc1C(F)(F)F [Compound 284, 2-[2-(4,4-difluoroazepan-1-yl)-5-methyl-6-(trifluoromethyl)-3-pyridyl]-5,6-dimethyl-4-oxo-1H-pyridine-3-carboxylic acid]
≥ 5000 nM | Cc1cc(=O)cc(-c2cc(C(F)(F)F)ncc2C2CCC(C(F)(F)F)CC2)[nH]1 (stereo not drawn) [Compound 321, 2-methyl-6-[2-(trifluoromethyl)-5-[4-(trifluoromethyl)cyclohexyl]-4-pyridyl]-1H-pyridin-4-one]
≥ 5000 nM | Cc1cc(=O)cc(-c2c(C(F)(F)F)ccnc2N2CCC(F)(F)CC2)[nH]1 [Compound 319, 2-[2-(4,4-difluoro-1-piperidyl)-4-(trifluoromethyl)-3-pyridyl]-6-methyl-1H-pyridin-4-one]
2000 to 5000 nM | Cc1cc(=O)cc(-c2cc(C(F)(F)F)ncc2C2CCC(C(F)(F)F)CC2)[nH]1 (stereo not drawn) [Compound 322, 2-methyl-6-[2-(trifluoromethyl)-5-[4-(trifluoromethyl)cyclohexyl]-4-pyridyl]-1H-pyridin-4-one]
500 to 2000 nM | COc1cc(F)ccc1Oc1cc(C(C)(C)C)cc(C)c1-c1cc(=O)c(C(=O)N(C)C)c(C)[nH]1 [Compound 289, 6-[4-tert-butyl-2-(4-fluoro-2-methoxy-phenoxy)-6-methyl-phenyl]-N,N,2-trimethyl-4-oxo-1H-pyridine-3-carboxamide]
≥ 5000 nM | COc1cc(F)ccc1Oc1cc(C(C)(C)C)cc(C)c1-c1cc(=O)cc(C(O)CO)[nH]1 (stereo not drawn) [Compound 274, 2-[4-tert-butyl-2-(4-fluoro-2-methoxy-phenoxy)-6-methyl-phenyl]-6-(1,2-dihydroxyethyl)-1H-pyridin-4-one]
≥ 5000 nM | Cc1cc(=O)cc(-c2ccc(C(F)(F)F)cc2C2(O)CCC(F)(F)CC2)[nH]1 [Compound 323, 2-[2-(4,4-difluoro-1-hydroxy-cyclohexyl)-4-(trifluoromethyl)phenyl]-6-methyl-1H-pyridin-4-one]
500 to 2000 nM | CO[C@@H]1CN(c2nc3ccccc3cc2-c2cc(=O)cc(C)[nH]2)C[C@@H]1C [Compound 253, 2-[2-[(3S,4S)-3-methoxy-4-methyl-pyrrolidin-1-yl]-3-quinolyl]-6-methyl-1H-pyridin-4-one]
≥ 5000 nM | Cc1cc(=O)cc(-c2c(C(F)(F)F)ccnc2N2CCCC(F)(F)CC2)[nH]1 [Compound 318, 2-[2-(4,4-difluoroazepan-1-yl)-4-(trifluoromethyl)-3-pyridyl]-6-methyl-1H-pyridin-4-one]
